Source: patent US12691107B2, “Methods for the treatment and prevention of lung infections caused by gram-positive bacteria, fungus, or virus by administration of tafenoquine” (priority 2020, dated 2026)
Converted amounts (≈) assume the structure as drawn. Like-named read-outs stand apart in the source and are kept apart here.

Tests used:
[1] = tested on: M. tuberculosis [ATCC #27294]; assay: MIC against M. tuberculosis in 7H9 media; format: cell-based; settings: Mycobacterium tuberculosis
SARS-CoV-2 [2] = assay: microbe, parasite or virus in culture; format: cell-based
SARS-CoV-2 [3] = assay: SARS-CoV-2 antiviral assay in CALU-3 cells; format: cell-based; settings: Severe acute respiratory syndrome coronavirus 2, medium with 10% fetal bovine serum, read-out: EC50 (same as IC50 of FIG. 4)
[4] = Maximum tolerated dose in uninfected immunosuppressed mice; format: in vivo, ICR mice
Procedure: Tafenoquine succinate powder was supplied in the form of the commercial API used to make 100 mg ARAKODA tablets [therefore it was >99.8% pure and contain no excipients]. Four dosing solutions were prepared, and the concentrations of tafenoquine succinate were adjusted based on the mean mouse weight at the start of the study in order to achieve dosing groups of 2.5, 5, 10 and 20 mg/kg tafenoquine base respectively [note that tafenoquine succinate contains 79.6% tafenoquine base].
The dosing solutions was in the form of a tafenoquine succinate suspension in the drug vehicle. A large batch [>1 liter] of the drug vehicle [0.2% v/v Tween 80 in 1% v/v methyl cellulose in sterile water] was prepared at least 96 h before the first dose was administered and kept refrigerated [4° C.]. During preparation, the batch of drug vehicle was stirred for sufficiently long to ensure a uniform composition [4 to 24 h of stirring with a magnetic stir bar may be required].
Dosing solutions were prepared no more than 72 h prior to the first dose. Tafenoquine powder was weighed out separately for each dosing solution. After weighing, tafenoquine was transferred into an appropriately sized, transparent tube [or equivalent] containing the desired volume of drug vehicle, and gently shaken to allow development of a uniform suspension without bubble formation. The tubes containing dosing solutions were stored at [4° C.] wrapped in aluminum foil until use. Prior to use, the dosing solutions were inverted gently as required to resuspend the tafenoquine and allowed to warm temperature. Use of transparent tubes allowed for visual confirmation that an even resuspension of the drug has had been achieved prior to dosing. The above resuspension procedure was conducted the first time 48 h prior to the first day of dosing to confirm there have been no preparation issues.
Mouse Strain—Outbred male ICR mice weighing ~28 grams were used. Mice were housed 5 per cage and had access to food and water ad libitum.
Immune Status—Standard neutropenic immunosuppression regimen in the PK/dose tolerability study was used, which was also used in the in vivo efficacy model. This regimen utilizes cyclophosphamide and cortisone acetate to render animals immunosuppressed prior to aerosolized inoculation. • Cyclophosphamide (25 mg/mL) was dissolved by the addition of sterile water to the vial. This was administered as a dose of 250 mg/kg two days prior to inoculation. […]
Mouse Assessment—Throughout the studies, mice were observed multiple times per day and their overall health determined. […]

[5] = tested on: HFF, mouse embryo fibroblast and Guinea Pig Lung cells; settings: range over all three cytomegalovirus assays
Pneumocystis [6] = settings: cited from earlier work
Pneumocystis [7] = assay: Pneumocystis pneumonia in rats, therapy or prophylaxis
Candida albicans = assay: Antifungal MIC (RPMI-1640 microdilution); format: cell-based
Candida guilliermondii = assay: Antifungal MIC (RPMI-1640 microdilution); format: cell-based; settings: Meyerozyma guilliermondii
P. variotii = assay: Antifungal MIC (RPMI-1640 microdilution); format: cell-based; settings: Paecilomyces variotii, isolate MYA-3630
Sporothrix sp. = assay: Antifungal MIC (RPMI-1640 microdilution); format: cell-based
Coccidioides sp. = assay: microbe, parasite or virus in culture; format: cell-based
Enterococcus faecalis = assay: Antibacterial MIC (broth microdilution); format: cell-based
Streptococcus pneumoniae = assay: Antibacterial MIC (broth microdilution); format: cell-based; settings: CA-MHB with 3% LHB

COc1cc(C)c2c(Oc3cccc(C(F)(F)F)c3)c(OC)cc(NC(C)CCCN)c2n1 (centres unmarked) [Tafenoquine, N(4)-[2,6-Dimethoxy-4-methyl-5-[3-(trifluoromethyl)phenoxy]quinolin-8-yl]pentane-1,4-diamine]
MIC ([1]; ATCC27294, 168 h, 7H9 with BSA, DPPC and cholesterol, 1 week, read-out: MIC): 9.4 µg/mL (≈ 20.3 µM) | MIC ([1]; ATCC27294, 168 h, 7H9 with casitone and DPPC, 1 week, read-out: MIC): 4.7 µg/mL (≈ 10.1 µM) | MIC ([1]; ATCC27294, 168 h, 7H9 with glucose and BSA, 1 week, read-out: MIC): 12.5 µg/mL (≈ 27 µM) | MIC ([1]; ATCC27294, 168 h, 7H9 with glucose and casitone, 1 week, read-out: MIC): 4.7 µg/mL (≈ 10.1 µM) | MIC ([1]; ATCC27294, 336 h, 7H9 with BSA, DPPC and cholesterol, 2 weeks, read-out: MIC): 12.5 µg/mL (≈ 27 µM) | MIC ([1]; ATCC27294, 336 h, 7H9 with casitone and DPPC, 2 weeks, read-out: MIC): 6.25 µg/mL (≈ 13.5 µM) | MIC ([1]; ATCC27294, 336 h, 7H9 with glucose and BSA, 2 weeks, read-out: MIC): 19 µg/mL (≈ 41 µM) | MIC ([1]; ATCC27294, 336 h, 7H9 with glucose and casitone, 2 weeks, read-out: MIC): 6.25 µg/mL (≈ 13.5 µM) | MIC ([1]; ATCC27294, range over Examples 19-22, read-out: MIC against replicating forms of tuberculosis in vitro): 4.7 to 18 µg/mL (≈ 10.1 to 38.8 µM) | selectivity index (SARS-CoV-2 [2]; 4-day assay): 2.4 | EC50 (SARS-CoV-2 [2]; Severe acute respiratory syndrome coronavirus 2, Vero C1008, 96 h): 15.7 µM | EC50 (SARS-CoV-2 [3]): 8.6 µM | mice moribund prior to the study endpoint ([4]; 10 mg/kg group): 2 of 21 | mice moribund prior to the study endpoint ([4]; 20 mg/kg group): 4 of 21 | tolerability ([4]; 2.5 and 5.0 mg/kg oral, daily): well-tolerated | mouse weights on days 7/8 versus vehicle control ([4]; higher dose groups (10 and 20 mg/kg)): these differences were not significant | CC50s [5]: 13 to 17 µM | Approximate EC50 of tafenoquine against Pneumocystis in vitro (Pneumocystis [6]): ~1 µg/mL | corresponding steady state plasma level (Pneumocystis [7]; prophylaxis): ~36 nanogram/ml | effective minimum inhibitory concentration in lungs (Pneumocystis [7]; prophylaxis): 23 micrograms/g | corresponding steady state plasma level (Pneumocystis [7]; treatment): approximately 125 nanogram/ml | effective minimum inhibitory concentration in lungs (Pneumocystis [7]; treatment): 81 micrograms/g

COc1cc(C)c2c(Oc3cccc(C(F)(F)F)c3)c(OC)cc(NC(C)CCCN)c2n1.O=C(O)CCC(=O)O (centres unmarked) [Tafenoquine Succinate]
MIC50 (Candida albicans; ATCC90028, read-out: MIC 50% inhibition, isolate ATCC 90028): 4 µg/mL | MIC (Candida albicans; ATCC90028, read-out: MIC 100% inhibition, isolate ATCC 90028): 4 µg/mL | MIC50 (Candida albicans; read-out: MIC 50% inhibition, isolate CA3): 4 µg/mL | MIC50 (Candida albicans; read-out: MIC 50% inhibition, isolate SC5314): 8 µg/mL | MIC (Candida albicans; read-out: MIC 100% inhibition, isolate CA3): 4 µg/mL | MIC (Candida albicans; read-out: MIC 100% inhibition, isolate SC5314): 8 µg/mL | MIC50 (Candida guilliermondii; read-out: MIC 50% inhibition, isolate Cgui1): 2 µg/mL | MIC50 (Candida guilliermondii; read-out: MIC 50% inhibition, isolate Cgui2): 2 µg/mL | MIC50 (Candida guilliermondii; read-out: MIC 50% inhibition, isolate Cgui3): 4 µg/mL | MIC (Candida guilliermondii; read-out: MIC 100% inhibition, isolate Cgui1): 4 µg/mL | MIC (Candida guilliermondii; read-out: MIC 100% inhibition, isolate Cgui2): 2 µg/mL | MIC (Candida guilliermondii; read-out: MIC 100% inhibition, isolate Cgui3): 4 µg/mL | MIC50 (P. variotii; read-out: MIC 50% inhibition): 4 µg/mL | MIC (P. variotii; read-out: MIC 100% inhibition): 4 µg/mL | MIC50 (Sporothrix sp.; read-out: MIC 50% inhibition, isolate Sporo1): 2 µg/mL | MIC50 (Sporothrix sp.; read-out: MIC 50% inhibition, isolate Sporo2): 1 µg/mL | MIC50 (Sporothrix sp.; read-out: MIC 50% inhibition, isolate Sporo3): 2 µg/mL | MIC (Sporothrix sp.; read-out: MIC 100% inhibition, isolate Sporo1): 4 µg/mL | MIC (Sporothrix sp.; read-out: MIC 100% inhibition, isolate Sporo2): 2 µg/mL | MIC (Sporothrix sp.; read-out: MIC 100% inhibition, isolate Sporo3): 4 µg/mL | MIC50 (Coccidioides sp.; read-out: MIC 50% inhibition, isolate Cocci1): 4 µg/mL | MIC50 (Coccidioides sp.; read-out: MIC 50% inhibition, isolate Cocci2): 16 µg/mL | MIC50 (Coccidioides sp.; read-out: MIC 50% inhibition, isolate D117-143): 16 µg/mL | MIC (Coccidioides sp.; read-out: MIC 100% inhibition, isolate Cocci1): 8 µg/mL | MIC (Coccidioides sp.; read-out: MIC 100% inhibition, isolate Cocci2): 16 µg/mL | MIC (Coccidioides sp.; read-out: MIC 100% inhibition, isolate D117-143): 16 µg/mL | MIC (Enterococcus faecalis; ATCC29212, isolate ATCC 29212): 8 µg/mL | MIC (Enterococcus faecalis; isolate 1768): 8 µg/mL | MIC (Streptococcus pneumoniae; Streptococcus pneumoniae, ATCC49619, isolate ATCC 49619, read-out: MIC): 16 µg/mL | MIC (Streptococcus pneumoniae; Streptococcus pneumoniae, isolate MD77773, read-out: MIC): 16 µg/mL | MIC (Streptococcus pneumoniae; isolate CO314937): 16 µg/mL
